From PubChem BioAssay (NCI)
Values joined by “and” are separate entries in the source; they are usually repeats but may differ in a detail not shown here. Equal values may be shown once.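 In this assay, cells in 96-well plates receive the compound at five concentrations for 48 hours. Endpoints are linearly interpolated between the surrounding concentrations. At the GI50, growth is halved. TGI denotes the concentration required for complete inhibition of growth.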

Legend:
Experiment in all cases: growth of human tumour cells (NCI), 48 h
DU-145 prostate = tested on: DU-145 prostate
K-562 leukemia = tested on: K-562 leukemia
HOP-62 NSCLC = tested on: HOP-62 NSCLC
MALME-3M melanoma = tested on: MALME-3M melanoma
SK-OV-3 ovarian = tested on: SK-OV-3 ovarian
LOX IMVI melanoma = tested on: LOX IMVI melanoma
COLO 205 colon = tested on: COLO 205 colon
HOP-92 NSCLC = tested on: HOP-92 NSCLC
NCI-H460 lung = tested on: NCI-H460 lung
HCT-116 colon = tested on: HCT-116 colon

SMILES | GI50 (DU-145 prostate) | TGI (DU-145 prostate) | GI50 (K-562 leukemia) | TGI (K-562 leukemia) [µM] | GI50 (HOP-62 NSCLC) | TGI (HOP-62 NSCLC) | GI50 (MALME-3M melanoma) | TGI (MALME-3M melanoma) | GI50 (SK-OV-3 ovarian) | TGI (SK-OV-3 ovarian) | GI50 (LOX IMVI melanoma) | TGI (LOX IMVI melanoma) | GI50 (COLO 205 colon) | TGI (COLO 205 colon) | GI50 (HOP-92 NSCLC) | TGI (HOP-92 NSCLC) | GI50 (NCI-H460 lung) | TGI (NCI-H460 lung) | GI50 (HCT-116 colon) | TGI (HCT-116 colon)
Cc1ccc(NC(=O)c2ccc(CN3CCN(C)CC3)cc2)cc1Nc1nc(-c2cccnc2)cs1 | 15 µM and > 10 µM | 28.4 µM and > 10 µM | 0.617 µM and 2.96 µM | > 100 | 16.3 µM and > 10 µM | 29.9 µM and > 10 µM | 7.14 µM and 2.26 µM | 21 µM and 6.92 µM | 19.1 µM and > 10 µM | 40 µM and > 10 µM | 2.47 µM and 3.06 µM | 5.8 µM and > 10 µM | 8.14 µM and 3.69 µM | 22.6 µM and > 10 µM | 11 µM and > 10 µM | 24.2 µM and > 10 µM | 7.33 µM and 5.34 µM | 22.5 µM and > 10 µM | 3.74 µM and 3.05 µM | 14.8 µM and > 10 µM
O=P1(NCCCl)OCCCN1CCCl (stereo unspecified) | – | > 500 µM | – | 466 | – | 444 µM | – | 399 µM | – | 424 µM | – | 402 µM | – | 428 µM | – | 367 µM | – | 448 µM | – | 440 µM
O=C1C=C(Nc2ccccc2)c2ccccc2C1=O | 1.84 µM | 3.29 µM | 2.64 µM | 7.81 | 1.17 µM | 2.83 µM | 1.64 µM | 3.07 µM | 2.95 µM | 8.99 µM | 1.51 µM | 3.17 µM | 1.96 µM | 3.61 µM | 2.73 µM | 13.2 µM | 2.44 µM | 6.47 µM | 2.15 µM | 5.49 µM
CCCCn1c(=O)[nH]c(N)c([C@@H]2c3c([nH]c(=O)n(CCCC)c3=O)Oc3ccc4ccccc4c32)c1=O | 1.8 µM | 3.25 µM | 12.2 µM | 51.2 | 1.5 µM | 4.72 µM | 2.34 µM | 7.02 µM | 2.74 µM | 11.9 µM | 1.29 µM | 2.69 µM | 2 µM | 4.03 µM | 2 µM | 6.5 µM | 2.19 µM | 5.05 µM | 1.53 µM | 3.02 µM
CCOc1ccc(N(C)c2ccc(/C=C/C3=[N+](C)c4ccccc4C3(C)C)cc2)cc1 | 0.421 µM | 1.86 µM | 0.359 µM | 10.3 | 0.482 µM | 1.91 µM | 0.184 µM | 0.848 µM | 0.354 µM | 1.44 µM | 0.133 µM | 0.364 µM | 0.211 µM | 0.81 µM | 0.197 µM | 0.86 µM | 0.306 µM | 1.38 µM | 0.0725 µM | 1.1 µM
O=C(/C=C\c1ccc(O)c(O)c1)c1ccccc1O | 11.7 µM | 45.3 µM | 12.5 µM | 71.5 | 12.6 µM | 50.8 µM | 11.4 µM | 32.5 µM | 17.7 µM | 71.6 µM | 11 µM | 23.1 µM | 8.99 µM | 21.6 µM | 3.77 µM | 27.7 µM | 15.1 µM | 49.8 µM | 11.9 µM | 24.9 µM
O=C1NC(=O)C(c2c[nH]c3ccccc23)=C1c1c[nH]c2ccccc12 | > 21.2 µM | > 25 µM | 11.1 µM | > 25 | 16.5 µM | > 25 µM | > 14.7 µM | > 25 µM | 13.5 µM | > 25 µM | 5.31 µM | > 25 µM | 9.18 µM | > 25 µM | 5.72 µM | > 25 µM | 10.6 µM | > 25 µM | 9.33 µM | > 25 µM
COc1ccc(-c2csc3c2-n2cccc2C3=O)cc1 | 0.0601 µM | – | 0.00275 µM | – | 0.0986 µM | > 72 µM | – | > 100 µM | – | 5.98 µM and 25.3 µM | 0.0349 µM | > 100 µM | – | 5.78 µM | 0.0919 µM | > 100 µM | 0.273 µM | > 43 µM | 0.0199 µM | > 45.4 µM
CC[C@@]1(OP(=O)(O)O)C(=O)OCc2c1cc1n(c2=O)Cc2cc3ccccc3nc2-1 | – | 0.598 µM | 0.572 µM | > 100 | 0.0131 µM | 1.47 µM and 0.248 µM | 1.09 µM | 9.87 µM and 14 µM | 0.105 µM | 7.98 µM and 6.46 µM | – | 0.585 µM | 1.21 µM | 5.64 µM | 1.24 µM | 2.7 µM and 6.46 µM | – | 0.666 µM | – | 1.51 µM
CS(=O)(=O)OCCN(CCOS(C)(=O)=O)c1ccc(C=Nc2ccc(-c3csc(COc4ccccc4)n3)cc2)cc1 | – | 14.2 µM | – | > 76 | – | 10.1 µM | – | 28.8 µM | – | 12.2 µM | – | 18.1 µM | – | 6.98 µM | – | 35 µM | – | 2.1 µM | – | 27.6 µM
C=CCc1cccc(C=O)c1O | > 100 µM | > 100 µM | 32 µM | > 100 | > 100 µM | > 100 µM | > 100 µM | > 100 µM | > 100 µM | > 100 µM | 17.3 µM | > 100 µM | > 100 µM | > 100 µM | 0.809 µM | 59 µM | > 100 µM | > 100 µM | 4.07 µM | > 100 µM
O=C(O)/C=C\C(=O)Nc1ccc2c(c1)-c1ccccc1C2 | – | > 100 µM | – | > 100 | – | > 100 µM | – | > 100 µM | – | > 100 µM | – | > 100 µM | – | > 100 µM | – | > 100 µM | – | > 100 µM | – | > 100 µM
COc1cc2cc(NCc3cccc(Cl)c3)nc(C)c2cc1OC | 5.41 µM | 20.9 µM | 1.68 µM | 19.8 | 0.862 µM | 22.2 µM | 10.3 µM | 23.8 µM | 4.94 µM | 33.5 µM | 0.442 µM | 4.36 µM | 1.62 µM | 9.3 µM | 0.597 µM | 14.3 µM | 1.27 µM | 14.6 µM | 0.532 µM | 9.63 µM
COc1ccc2c(c1)[C@@H](NC(C)=O)CCc1cc(OC)c(OC)c(OC)c1-2 | – | 0.0433 µM | – | > 100 | – | > 100 µM | – | > 100 µM | – | 4.1 µM | – | > 75.6 µM | – | 0.02 µM | – | > 9.04 µM | – | > 15.8 µM | – | 0.528 µM
Nc1c(C(=O)Nc2cccc(Cl)c2)sc2nc3c(cc12)C(=O)CCC3 | 0.377 µM | > 100 µM | 0.101 µM | > 100 | 0.663 µM | > 100 µM | 0.498 µM | > 100 µM | 0.313 µM | > 70.5 µM | 0.905 µM | > 100 µM | 0.288 µM | – | – | > 100 µM | 0.322 µM | > 100 µM | 0.431 µM | > 100 µM
O=C(O)/C=C/c1ccc(O)c(O)c1 | – | > 100 µM | – | > 100 | – | > 100 µM | – | > 100 µM | – | > 100 µM | – | > 100 µM | – | > 100 µM | – | > 100 µM | – | > 100 µM | – | > 100 µM
CC1CCCCCC(=O)c2c(O)cc(O)cc2CC(=O)O1 (stereo unspecified) | – | > 100 µM | – | > 100 | – | > 100 µM | – | > 100 µM | – | > 100 µM | – | > 100 µM | – | > 100 µM | – | > 100 µM | – | > 100 µM | – | > 100 µM
COC(=O)N[C@H]1CCc2cc(OC)c(OC)c(OC)c2-c2ccc(SC)c(=O)cc21 | < 0.01 µM | > 100 µM | < 0.01 µM | > 100 | < 0.01 µM | > 100 µM | < 0.012 µM | > 100 µM | < 0.01 µM | > 100 µM | < 0.01 µM | > 100 µM | < 0.01 µM | – | 0.0631 µM | > 64.8 µM | < 0.01 µM | > 100 µM | < 0.01 µM | > 100 µM
CN1CCN(Cc2ccc(NC(=O)c3cncc(C#Cc4cnc(N)c5ncccc45)c3)cc2C(F)(F)F)CC1 | 0.37 µM | 7.33 µM | – | 1.92 | 0.448 µM | 5.78 µM | 0.131 µM | 0.607 µM | 0.391 µM | 9.07 µM | 0.216 µM | 1.33 µM | 0.231 µM | 1.66 µM | 0.209 µM | 1.24 µM | 0.261 µM | 1.59 µM | 0.122 µM | 1.74 µM
O=[N+]([O-])c1ccc(C2=NCCO2)cc1 | > 100 µM | > 100 µM | > 100 µM | > 100 | > 100 µM | > 100 µM | > 100 µM | > 100 µM | > 100 µM | > 100 µM | > 100 µM | > 100 µM | > 100 µM | > 100 µM | > 100 µM | > 100 µM | > 100 µM | > 100 µM | > 100 µM | > 100 µM
COC(=O)[C@@H](C)C[C@H](Cc1ccccc1)NC(=O)c1nc([C@@H](C[C@H](C(C)C)N(C)C(=O)[C@@H](NC(=O)[C@H]2C[C@H](O)CCN2C)C(C)C)OC(C)=O)sc1C(C)C | 0.00395 µM | – | 0.00267 µM | > 11.1 | 0.0315 µM | > 11.1 µM | 0.00537 µM | > 11.1 µM | 0.00646 µM | > 11.1 µM | 0.00437 µM | > 5.38 µM | 0.00692 µM | 0.104 µM | 0.00491 µM | 7.05 µM | 0.0076 µM | > 11.1 µM | 0.004 µM | 3.88 µM
